Experimental findings from EP2557075A1, “New triazene compounds for treating cancer” (Trin Therapeutics GmbH, priority 2011, dated 2013) are described below.

pIC50: −log10 of the molar value. Read-outs that look alike come from different tables or passages of the source. A value given as a limit tells only on which side of the number the result lay.

One data set deals with HCT-8. Nature of the data set: Intracellular uptake of triazenes in HCT-8 cells (Experiment 2). It counts as in vitro ADME. The following applies: HCT-8, 50.000ng/ml, 10.000ng/ml O6-Benzylguanin, first two time points (2, 4 Stunden). Here is the method: Es wird gezeigt, dass Verbindungen nach Beispiel 1 schneller und in größerer Menge intrazellulär aufgenommen werden als die als Vergleichssubstanzen eingesetzten Verbindungen nach Präparat 2 und 5 (entsprechend Verbindungen nach Präparat 2 und Beispiel 2a jeweils der WO 2009/004060).
Die getesteten Verbindungen wurden wie folgt gelöst: • Erfindungsgemäße Verbindung: • Beispiel 1: in 20 mg/ml DMSO
Vergleichssubstanzen: • Präparat 2: in 50mg/ml DMSO, • Präparat 5: in 50mg/ml Wasser.
Alle drei Substanzen wurden in einer Dosis von 50.000ng/ml auf 2 x 10^7 HepG2 und HCT-8 sowie 2 x 10^6-MDA-MB231 Zellen gegeben. Als Zellkulturmedium wurde 100% (MDA-MB231: 50%) fötales Kälberserum (FCS) verwendet. Zudem wurde bei den Versuchen mit HepG2 und HCT-8 noch 10.000ng/ml O6-Benzylguanin zugesetzt. Für den Versuch wurde die intrazelluläre Konzentration von Ausgangsprodukt und Metaboliten nach 2, 4 und 20 (HepG2), 2 und 3,5 und 20 Stunden (MDA-MB231) und 2,4, 24 und 48 Stunden (HCT-8) Inkubationszeit ermittelt. Alle drei Substanzen zeigten in Kontrollversuchen mit 100% FCS nach 40 Stunden metabolische Stabilität.

In data set [1] the test system is drei Pankreaskrebszelllinien. Briefly: IC50 of triazenes in three pancreatic cancer cell lines (Experiment 4). In kind it is cell-based. The text has this: Verschiedene Triazene wie erfindungsgemäße Verbindungen nach Beispiel 1, DTIC, TMZ sowie Verbindungen nach Präparat 2 und 5 (entsprechend Verbindungen nach Präparat 2 und Beispiel 2a jeweils der WO 2009/004060) sowie Verbindungen nach Beispiel 2 und 33 der DE1793115 wurden in DMSO bzw. Wasser gelöst.

Another data set concerns Mammakarzinome. Briefly: Benzidine-induced mammary carcinoma in female rats (Experiment 6). It counts as in vivo, Ratten. To be noted: s.c. or peroral, observation to day 30, percent median vs. start of treatment. On the procedure:
Die Mammakarzinome werden durch subkutane Injektionen von in physiologischer Kochsalz-Lösung suspendiertem Benzidin an weiblichen Ratten induziert. Je nach Art des Rattenstammes sind dazu unterschiedlich hohe Gesamtdosen und verschieden lange Induktionszeiten erforderlich. Bei zwei untersuchten Wistar-Stämmen (Züchter: Spiegel bzw. Winkelmann) erscheinen die Tumoren nach einer Induktionszeit von 150-330 Tagen und einer Gesamtdosis von 1000 bis 1225mg/kg Benzidin subkutan. Bei zwei verschiedenen Sprague-Dawley-Stämmen (Züchter: Mus Rattus AG bzw. Winkelmann) genügt schon eine einzige Benzidin-Injektion von 150mg/kg s.c., um nach 60-180 Tagen die Mammakarzinome entstehen zu lassen. Die Mammakarzinome entwickeln sich fast immer multipel. Acht oder mehr Tumoren pro Tier sind keine Seltenheit. Die Tumoren wachsen ziemlich schnell und führen etwa 30 bis 1 20 Tage nach Tastbarwerden zum Tode der Ratten. Nach 30 Tagen ist eine Tumorgröße von 6g zu erwarten (Figur 1 aus DE 01 7931 15).
Die Vergleichssubstanzen wurden für 30 Tage täglich s.c, oder peroral in Dosierungen zwischen 50-200mg/kg verabreicht. Die Verbindung nach Beispiel 1 wurde s.c. über die ersten 7 Tage in Dosierungen zwischen 20 und 100mg/kg, so dann in Dosierungen von 200 bis 1000mg/kg (in Stufen von 100mg/kg) für weitere 10 Tage appliziert. Bis zum Tag 30 erfolgte keine weitere Behandlung. […]

The subject of another data set is HL-60. Nature of the data set: Growth inhibition (IC50) in leukaemic HL-60 cells (Experiment 7). It counts as cell-based. To be noted: for pIC50: Homo sapiens, HL-60, 24 Stunden. The text has this: Hämatologische Zellen (CEM, HL-60) wurden für 24 Stunden mit unterschiedlichen Dosen verschiedener Triazenverbindungen inkubiert, um die IC50 zu bestimmen.
Data set [2] in a line: Formulation trials for intravenous application (Experiment 8). In kind it is physicochemical. Here is the method: Um die Testergebnisse aus Experiment 7 in einem in-vivo Xenograft Modell zu bestätigen, wurden Formulierungsversuche mit Verbindungen nach Beispiel 1 sowie der Verbindung nach Beispiel 2 aus DE 1 793 1 15, als den wirksamsten Verbindungen aus Experiment 7, unternommen.
15mg der Verbindung nach Beispiel 1 werden in 30µL DMSO ([…]) gelöst. Diese Stocklösung wird in 270µL 1 M Na2CO3 Lösung gegeben und nur leicht geschwenkt, nicht aber mittels Ultraschallbad behandelt.
Gleichermaßen sollte eine Formulierung für Verbindungen nach Beispiel 2 aus DE 1 7 93 1 15 hergestellt werden. Hier wurden 15µL der Verbindung nach Beispiel 2 vorgelegt. Bei einer Dichte von 1,08g/ml entsprach dies 16,2mg der Verbindung nach Beispiel 2. Dazu wurden 32,4µL DMSO gegeben. […] Sodann wurden 90µL einer frisch hergestellten 1 molaren Na2CO3 Lösung vorgelegt und 10µL der Lösung der Verbindung nach Beispiel 2 hinzugegeben. […] Auch mittels Ultraschallbad konnte keine Auflösung des erzeugten Niederschlags herbeiführen.

For `CN(C)N=Nc1ccc(C(=O)c2ccc(O)cc2)cc1` [Beispiel 1], the “intrazelluläre Konzentration vs. Vergleichssubstanzen” value in the data set with HCT-8 is given as “deutlich schneller und für die ersten beiden Messpunkte auch in höherer Konzentration intrazellulär nachweisbar”. Also, the “antitumorale Aktivität (IC50) compared with Vergleichssubstanzen” value in data set [1] is “deutliche Überlegenheit”. Moreover, the “Entwicklung der Tumorgewichte” value with Mammakarzinome is on record as “zu jedem Beobachtungszeitpunkt langsamer als unter einer Therapie mit den verwendeten Vergleichssubstanzen”. For the same molecule, the “Wachstumshemmung in x-fach niedrigerer Konzentration” value with HL-60 (CEM und HL-60, vs. Triazenverbindungen aus WO2009/004060 und Beispiel 33 aus DE 1793115) is ≤ 100 -fach. In addition, the pIC50 in the data set with HL-60 (mean of Exp. 1-5, read-out: IC50 Mittelwert) was 4.79; in the data set on HL-60 (read-out: IC50 Exp. 1), 4.90; in the data set with HL-60 (read-out: IC50 Exp. 2), 4.82; in the data set with HL-60 (read-out: IC50 Exp. 3), 4.62; with HL-60 (read-out: IC50 Exp. 4), 4.80; in the data set on HL-60 (read-out: IC50 Exp. 5) it was 4.87. In addition, the “Stabilität der gebrauchsfertigen Lösung” value in data set [2] (15mg in 30µL DMSO + 270µL 1 M Na2CO3, Raumtemperatur) is listed as “unter Raumtemperatur stabil”. Further, the “Löslichkeit in der Formulierung” value in data set [2] (DMSO stock solution given into 1 M Na2CO3 Lösung) was “vollständig löst”. Moreover, the “stabile und verträgliche Formulierung” value in data set [2] (Lösungsmittel wie Cremophor, PEG400, Tween80, Poloxamer) is “nicht erreicht werden konnte”.

What is called pIC50 is the IC50 on a negative log10 scale, so that one unit is a factor of ten.
